Measured values: paper PMC12406685, “Thiazole substitution of a labile amide bond—a new option toward antiplasmodial pantothenamide-mimics” (Antimicrobial Agents and Chemotherapy, 2025)

Tested on: intraerythrocytic P. falciparum
Assay: In vitro parasite proliferation assay (SYBR Safe-based fluorescence)
Type: cell-based, Plasmodium falciparum (3D7 strain)
Details: Plasmodium falciparum; intraerythrocytic stage, RPMI-1640 containing 1 µM pantothenate, 96 h; mean ± SEM of three experiments; read-out: IC50 (µM) against Pf at 1 µM Pan
Description: Culturing of intraerythrocytic stage P. falciparum parasites (3D7 strain) was carried out using a method adapted from Trager and Jensen ([97]) and Allen and Kirk ([98]). Parasites were maintained within human, male or female, erythrocytes (typically Group O+, Rh+, 4% hematocrit) in RPMI-1640 medium (Thermo Fisher Scientific, catalogue number 72400120) supplemented with 25 mM HEPES, 11 mM glucose, 200 μM hypoxanthine, 24 μg/mL gentamicin and 6 g/L Albumax II on a horizontally rotating shaking incubator (New Brunswick Innova 42/[…]) at 37°C under an atmosphere of 96% nitrogen, 3% carbon dioxide, and 1% oxygen. To evaluate the effect of each compound on the in vitro proliferation of P. falciparum parasites, a SYBR Safe-based fluorescence assay was used as previously described ([32]). All pantothenamide-mimics tested were initially dissolved to a concentration of 200 mM in DMSO. The final DMSO concentration in the assay never exceeded 0.1% (vol/vol). Assays were performed using the same medium used to culture the parasites. […] Assays were set up with synchronous ring-stage P. falciparum-infected erythrocytes in 96-well microtiter plates. Parasites were synchronized using 5% (wt/vol) sorbitol ([100]). […] P. falciparum-infected erythrocytes incubated in the presence of 0.5 μM chloroquine were used as a non-proliferation control, and those incubated in the absence of compounds and chloroquine served as a 100% parasite proliferation control. To minimize “edge effects” ([101], [102]), the outermost rows and columns of the microtiter plates were not used in the proliferation assays and were filled with 200 μL of medium. The plates were then incubated at 37°C for 96 h under a low-oxygen atmosphere. At the end of the incubation, plates were frozen at -80°C to lyse the cells. […] The fluorescence in the non-proliferation control wells was subtracted from the fluorescence readings in the other wells prior to further analysis. Parasite proliferation, calculated as a percentage of the fluorescence measured in the test wells relative to the fluorescence measured in the 100% parasite proliferation control wells, was then plotted against the logarithm of the compound concentration. […] IC50 values (determined from the sigmoidal curves) were averaged from three independent experiments.

Q: Which IC50 does the source give for `CC(C)(CO)[C@@H](O)C(=O)NCc1cnc(Cc2ccccc2)s1` [Compound 3d] here?
A: 16 ± 1 µM

Q: With `CC(C)(CO)[C@@H](O)C(=O)NCc1cnc(-c2ccc(C(F)(F)F)cc2)s1` [Compound 3i] as the molecule, how does the IC50 read?
A: 46 ± 6 µM

Q: For `CC(C)CCc1csc(CNC(=O)[C@H](O)C(C)(C)CO)n1` [Compound 1b], which IC50 is on record?
A: 2.9 ± 0.2 µM

Q: Which IC50 does the source give for `CCCCc1ncc(CNC(=O)[C@H](O)C(C)(C)CO)s1` [Compound 3a] here?
A: 11 ± 1 µM

Q: Which IC50 does the source give for `CC(C)(CO)[C@@H](O)C(=O)NCc1cnc(-c2cccc(C(F)(F)F)c2)s1` [Compound 3j] here?
A: 11 ± 1 µM

Q: Which IC50 does the source give for `CCCCCCc1nc(CNC(=O)[C@H](O)C(C)(C)CO)cs1` [Compound 2b] here?
A: 5.2 ± 0.6 µM

Q: With `CC(C)(CO)[C@@H](O)C(=O)NCc1csc(-c2ccc(Cl)cc2)n1` [Compound 2f] as the molecule, how does the IC50 read?
A: 3.1 ± 0.3 µM

Q: With `CC(C)(CO)[C@@H](O)C(=O)NCc1csc(-c2ccc(C(F)(F)F)cc2)n1` [Compound 2g] as the molecule, how does the IC50 read?
A: 57 ± 2 µM

Q: For `CC(C)(CO)[C@@H](O)C(=O)NCc1cnc(-c2ccc(F)cc2)s1` [Compound 3g], which IC50 is on record?
A: 14 ± 2 µM

Q: Which IC50 does the source give for `CC(C)(CO)[C@@H](O)C(=O)NCc1cnc(CCc2ccccc2)s1` [Compound 3e] here?
A: 44 ± 1 µM

Q: Which IC50 does the source give for `CC(C)(CO)[C@@H](O)C(=O)NCc1csc(-c2cccc(C(F)(F)F)c2)n1` [Compound 2h] here?
A: 21 ± 1 µM

Q: With `CCCCCc1ncc(CNC(=O)[C@H](O)C(C)(C)CO)s1` [Compound 3b] as the molecule, how does the IC50 read?
A: 12 ± 1 µM

Q: For `CC(C)(CO)[C@@H](O)C(=O)NCc1cnc(-c2ccc(Cl)cc2)s1` [Compound 3h], which IC50 is on record?
A: 44 ± 4 µM

Q: Which IC50 does the source give for `CCCCCCc1csc(CNC(=O)[C@H](O)C(C)(C)CO)n1` [Compound 1d] here?
A: 4.3 ± 0.4 µM

Q: For `CCCCCCc1ncc(CNC(=O)[C@H](O)C(C)(C)CO)s1` [Compound 3c], which IC50 is on record?
A: 35 ± 2 µM

Q: With `CCCCCc1nc(CNC(=O)[C@H](O)C(C)(C)CO)cs1` [Compound 2a] as the molecule, how does the IC50 read?
A: 5.6 ± 0.2 µM

Q: With `CC(C)(CO)[C@@H](O)C(=O)NCc1csc(Cc2ccc3ccccc3c2)n1` [Compound 2d] as the molecule, how does the IC50 read?
A: 6.5 ± 0.1 µM

Tested on: intraerythrocytic P. falciparum
Assay: not given
Details: absence of pantetheinases; read-out: IC50 in the absence of pantetheinases; cited from earlier work

Q: Which IC50 does the source give for `CCCCCNC(=O)CCNC(=O)[C@H](O)C(C)(C)CO` [Compound N5-Pan] here?
A: 2 ± 0.5 µM

Same assay, conditions: in the presence of pantetheinases; read-out: IC50 against intraerythrocytic P. falciparum; cited from earlier work

Q: With `CCCCCCc1cc(CNC(=O)[C@H](O)C(C)(C)CO)no1` [iv] as the molecule, how does the IC50 read?
A: 0.16 ± 0.01 µM

Q: For `CCCCCc1nnc(CNC(=O)[C@H](O)C(C)(C)CO)s1` [compound v], which IC50 is on record?
A: 0.96 ± 0.05 µM

Q: Which IC50 does the source give for `CCCCCn1cc(CNC(=O)[C@H](O)C(C)(C)CO)nn1` [compound i] here?
A: 0.056 ± 0.005 µM

Q: With `CCCCCCn1cc(CNC(=O)[C@H](O)C(C)(C)CO)nn1` [ii] as the molecule, how does the IC50 read?
A: 0.055 ± 0.005 µM

Q: Which IC50 does the source give for `CCCCCc1cc(CNC(=O)[C@H](O)C(C)(C)CO)no1` [iii] here?
A: 0.072 ± 0.003 µM

Same assay, conditions: presence of pantetheinases; read-out: IC50 in the presence of pantetheinases; cited from earlier work

Q: With `CCCCCNC(=O)CCNC(=O)[C@H](O)C(C)(C)CO` [Compound N5-Pan] as the molecule, how does the IC50 read?
A: 124 ± 15 µM

Target: T1, HsPanK3 (Homo sapiens, UniProt Q9H999)
T1 sequence (Q9H999 12-368): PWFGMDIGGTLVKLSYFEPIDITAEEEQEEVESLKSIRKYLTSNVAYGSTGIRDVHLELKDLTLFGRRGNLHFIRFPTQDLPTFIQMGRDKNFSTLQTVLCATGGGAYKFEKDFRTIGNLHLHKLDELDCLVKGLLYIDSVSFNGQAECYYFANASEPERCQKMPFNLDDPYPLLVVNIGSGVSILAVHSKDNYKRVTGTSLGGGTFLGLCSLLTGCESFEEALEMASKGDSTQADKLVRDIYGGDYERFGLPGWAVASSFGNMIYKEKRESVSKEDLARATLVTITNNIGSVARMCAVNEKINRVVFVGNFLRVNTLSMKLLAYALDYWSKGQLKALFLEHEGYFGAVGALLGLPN
Assay: not given
Details: read-out: Km for pantothenate of HsPanK3, previous reports; cited from earlier work

Q: With `CC(C)(CO)[C@@H](O)C(=O)NCCC(=O)O` [D-Pantothenate] as the molecule, how does the Km read?
A: 17 ± 1 µM

Tested on: human hepatoblastoma cells (HepG2)
Assay: In vitro HepG2 proliferation assay (Incucyte confluency)
Type: cell-based
Details: 10 µM
Description: (§1) HFF cells were maintained in vitro in DMEM supplemented with 10% (vol/vol) newborn calf serum, 50 units/mL penicillin, 50 µg/mL streptomycin, 10 µg/mL gentamicin, 0.2 mM L-glutamine, and 0.25 µg/mL amphotericin B, as previously described ([99]). HepG2 cells were maintained in RPMI-1640 medium (Thermo Fisher Scientific, catalogue number 72400120) supplemented with 10% (vol/vol) fetal bovine serum, 50 units/mL penicillin, and 50 µg/mL streptomycin.
In vitro HepG2 proliferation assays were performed similarly to the HFF proliferation assays with modifications. Confluent HepG2 cells were harvested by treatment with 1 × trypsin–EDTA and diluted in RPMI-1640 supplemented with 10% (vol/vol) fetal bovine serum. Assays were set up in 96-well microtiter plates with 20,000 cells per well. Puromycin (10 µM) was used as a non-proliferation control, and 0.1% (vol/vol) DMSO served as a 100% proliferation control. The plates were incubated at 37°C in a CO2 incubator for 72 h, and the Incucyte Live-Cell Analysis System (Essen BioScience) was used to capture cellular changes and assess cell growth in each well over time as described above for the HFF proliferation assays. The bottom of the curve was constrained to 0 when fitting for HepG2 proliferation assays using GraphPad Prism.

Q: With `COc1ccc(C[C@H](N)C(=O)N[C@H]2[C@@H](O)[C@H](n3cnc4c(N(C)C)ncnc43)O[C@@H]2CO)cc1` [puromycin, reference compound] as the molecule, how does the “Effect on proliferation of HepG2 cells (positive control)” value read?
A: completely inhibited

Tested on: PfPanK
Assay: not given
Parameters: method as in PMID 29614109, PMID 11278793, PMID 24333332
Details: mean ± SEM; read-out: Km for pantothenate of PfPanK in parasite lysates; cited from earlier work

Q: With `CC(C)(CO)[C@@H](O)C(=O)NCCC(=O)O` [D-Pantothenate] as the molecule, how does the Km read?
A: 0.27 ± 0.095 µM

Tested on: human foreskin fibroblasts (HFF)
Assay: In vitro HFF proliferation assay (Incucyte confluency)
Type: cell-based
Details: 10 µM
Description: as §1
In vitro HFF proliferation assays were performed as previously described by Howieson et al. ([32]), with modifications. Confluent HFF cells (in a 75 cm^2 flask) were harvested by treatment with 1 × trypsin–EDTA (0.25% [wt/vol] trypsin +0.2 g/L EDTA) and diluted in 21 mL of DMEM supplemented with 10% [vol/vol] newborn calf serum ([32]). Assays were set up in 96-well microtiter plates in a similar way to that described for the antiplasmodial activity assay. Cycloheximide (10 µM) was used as a non-proliferation control, and 0.1% (vol/vol) DMSO served as a 100% proliferation control. The plates were incubated at 37°C in a CO2 incubator for 96 h, and the Incucyte Live-Cell Analysis System (Essen BioScience) was used to capture cellular changes and assess cell growth in each well over time. Each well was scanned to capture bright field images, and confluency was assessed at the end of the 96 h incubation, which was then used to evaluate the effect of each compound on the proliferation of HFF cells by comparing it to the 100% proliferation control. The bottom of the curve was constrained to 0 when fitting for HFF proliferation assays using GraphPad Prism.

Q: Which “Effect on proliferation of HFF cells (positive control)” value does the source give for `C[C@@H]1C[C@@H]([C@H](O)CC2CC(=O)NC(=O)C2)C(=O)[C@@H](C)C1` [Cycloheximide, reference compound] here?
A: completely inhibited the proliferation
